Laboratory results as given in patent US8404650B2, “Methods of treating cancer with doxazolidine and prodrugs thereof” (priority 2005, dated 2013).
Like-named read-outs stand apart in the source and are kept apart here.

Assays:
SK-HEP-1 = assay: Growth inhibition of SK-HEP-1 liver cancer cells; format: cell-based, human; settings: crystal violet; for Growth inhibition IC50, SK-HEP-1, 24 h: 24 h drug treatment
Excerpt: (§1) Cell growth inhibition experiments initially focused on MCF-7, MCF-7/Adr, SK-HEP-1, and Hep G2 cancer cells as well as rat cardiomyocytes as a measure of cardiotoxicity and Vero cells (green monkey kidney cells) as an additional measure of normal cell toxicity. […]

MCF-7/Adr = assay: Growth inhibition of multidrug resistant MCF-7/Adr breast cancer cells (crystal violet); format: cell-based; settings: for Growth inhibition IC50, MCF-7/Adr, 24 h: 24 h drug treatment
Method: (§2) In vitro Activity. […] This cell suspension was dispensed in 200 μL aliquots (1000 cells/well) into the inside wells of 96-well tissue culture plates. Outside wells contained 200 μL of media. […] The medium was replaced with 90 μL of growth medium prior to addition of the drug. Doxaz was dissolved in DMSO at concentrations ranging from 50 μM to 1 mM. […] Serial dilutions (1:3 and 1:10) were made in sterile DMSO to yield seven solutions of decreasing drug concentration at 100× the respective working concentrations. […] Additionally, two lanes were treated with 10 μL of growth medium containing 10% sterile DMSO and one lane was treated with 90 μL of 1.5 M Tris HCl. […]
(§3) Cell growth inhibition experiments initially focused on MCF-7, MCF-7/Adr, SK-HEP-1, and Hep G2 cancer cells as well as rat cardiomyocytes as a measure of cardiotoxicity and Vero cells (green monkey kidney cells) as an additional measure of normal cell toxicity.
(§4) Activity of plasmin-activated prodrugs.
(§5) A more thorough characterization of the growth inhibition of a variety of cancer cells as well as rat cardiomyocytes by Formula IV (aFK-PABC-Doxaz) was evaluated in comparison with inhibition of growth by Doxaz, Dox and aFK-PABC-Dox. Cells were treated with drug for 3 h and colony growth was measured at 3 to 5 days when cells reached about 80% confluence. […] The breast cancer cell lines represent the multi-drug resistant (MDR) phenotype with MCF-7/Adr cells and a cell line that is transfected with the gene for urokinase plasminogen activator (uPA), the primary enzyme responsible for cleavage of plasminogen to plasmin. Rat cardiomyocytes served as a model for comparison of drug cardiotoxicity.

[1] = system: H9c2(2-1) rat cardiomyocytes; assay: Growth inhibition of rat cardiomyocytes as a measure of cardiotoxicity; format: cell-based; settings: for Growth inhibition IC50, H9c2(2-1), 24 h: 24 h drug treatment, crystal violet
Method: Biological activity of simple Doxazolidine carbamates. Since the prodrug carbamates were designed to be activated by carboxylesterases CES1 (hCE1) and/or CES2 (hiCE), cell lines of interest were measured for expression of the respective mRNAs using reverse transcription (RT) followed by PCR (polymerase chain reaction). Cancer cell lines investigated included SHP-77 resistant small cell lung, DU-145 prostate, MCF-7 sensitive breast, MCF-7/Adr resistant breast, SK-HEP-1 liver, and Hep G2 liver cells. As a measure of possible cardiotoxicity, H9c2(2-1) rat cardiomyocytes were also investigated. Cardiotoxicity is relevant because the ultimate product of metabolism and subsequent hydrolysis of these carbamates is doxorubicin, which is cardiotoxic. […] Additionally, the rat cardiomyocytes, H9c2(2-1), also express more CES2 than CES1.
Cell growth inhibition experiments initially focused on MCF-7, MCF-7/Adr, SK-HEP-1, and Hep G2 cancer cells as well as rat cardiomyocytes as a measure of cardiotoxicity and Vero cells (green monkey kidney cells) as an additional measure of normal cell toxicity. The butyl and pentyl carbamates inhibited the growth of MCF-7, MCF-7/Adr, and SK-HEP-1 cell lines with a 24 h drug treatment period with some selectivity for cancer cells over cardiomyocytes relative to growth inhibition by Dox as shown in Table 2. […] The relative inactivity of the ethyl carbamate may indicate that a substantial lipophilic interaction is required at the active site of the carboxylesterases to hold the Doxaz substrate.
Biological activity of Doxazolidine carbamates with self-eliminating spacer. […] SHP-77 small cell lung cancer cells were also of interest because they express modest amounts of both enzymes. Inhibition of the growth of cardiomyocytes was used as a measure of cardiotoxicity, and inhibition of the growth of Vero cells, green monkey kidney cells, was again used as another measure of toxicity to normal cells. They also show more activity against the cancer cells that express higher levels of CES1. Of particular note is the higher activity against Hep G2 cells than against SK-HEP-1 cells. […] The low toxicity of pentyl PABC-Doxaz to cardiomyocytes relative to the toxicity of Dox is encouraging and consistent with the low level of expression of CES1 in cardiomyocytes.
A more thorough characterization of the growth inhibition of a variety of cancer cells as well as rat cardiomyocytes by Formula IV (aFK-PABC-Doxaz) was evaluated in comparison with inhibition of growth by Doxaz, Dox and aFK-PABC-Dox. Cells were treated with drug for 3 h and colony growth was measured at 3 to 5 days when cells reached about 80% confluence. The cancer cells included one prostate cancer cell line (DU-145), three related breast cancer cell lines (MCF-7, MCF-7/Adr, and MCF-7 uPA), and one pancreatic cancer cell line (Mia PaCa-2). The breast cancer cell lines represent the multi-drug resistant (MDR) phenotype with MCF-7/Adr cells and a cell line that is transfected with the gene for urokinase plasminogen activator (uPA), the primary enzyme responsible for cleavage of plasminogen to plasmin. Rat cardiomyocytes served as a model for comparison of drug cardiotoxicity. Growth inhibition was also measured with added plasmin. aFK-PABC-Doxaz inhibited the growth of most of the cancer cells 0.5 log or more better than did aFK-PABA-Dox. Although not as dramatic, this differential response paralleled the differential response between Doxaz and Dox which is approximately two logs except for the MDR expressing, MCF-7/Adr cells which show more than three logs differential response. […] Addition of 0.01 unit/mL of plasmin has no effect on the activity of Dox but increases the activity of both aFK-PABC-Doxaz and aFK-PABC-Dox, in some cases by more than a log. Addition of 0.01 unit/mL plasminogen increases the activity of aFK-PABC-Doxaz on average by 0.3 log. […]

MCF-7 = assay: Growth inhibition of MCF-7 sensitive breast cancer cells (colony formation, crystal violet); format: cell-based, human
Method: as §2, §3, §4, §5

DU-145 = assay: Growth inhibition of DU-145 prostate cancer cells; format: cell-based; settings: for Cell growth inhibition IC50, DU-145: 24 h drug treatment, crystal violet
Method: as §2
(§6) SHP-77 small cell lung cancer cells were also of interest because they express modest amounts of both enzymes. Inhibition of the growth of cardiomyocytes was used as a measure of cardiotoxicity, and inhibition of the growth of Vero cells, green monkey kidney cells, was again used as another measure of toxicity to normal cells.
as §5, with “Cells were treated with drug for 3 h and colony growth was measured at 3 to 5 days when cells reached about 80% confluence.” left out

Hep G2 = assay: Growth inhibition of Hep G2 liver cancer cells; format: cell-based, human; settings: crystal violet; for Growth inhibition IC50, Hep G2, 24 h: 24 h drug treatment
Excerpt: as §1

SHP-77 = assay: Growth inhibition of SHP-77 small cell lung cancer cells; format: cell-based; settings: 24 h drug treatment; crystal violet
Excerpt: as §6

Vero cells = assay: Growth inhibition of Vero cells as a measure of normal cell toxicity (MTT); format: cell-based, green monkey; settings: 24 h drug treatment
Excerpt: as §3, §6

cancer cells [2] = settings: background statement; cited from earlier work
MDA-MB-435 = assay: Growth inhibition of MDA-MB-435 breast cancer cells; format: cell-based; settings: 3 h drug treatment, growth at 5 days; read-out: IC50 MDA-MB-435
Method: (§7) In vitro Activity. […] This cell suspension was dispensed in 200 μL aliquots (1000 cells/well) into the inside wells of 96-well tissue culture plates. Outside wells contained 200 μL of media. […] The medium was replaced with 90 μL of growth medium prior to addition of the drug. Doxaz was dissolved in DMSO at concentrations ranging from 50 μM to 1 mM. […] Serial dilutions (1:3 and 1:10) were made in sterile DMSO to yield seven solutions of decreasing drug concentration at 100× the respective working concentrations. […] Additionally, two lanes were treated with 10 μL of growth medium containing 10% sterile DMSO and one lane was treated with 90 μL of 1.5 M Tris HCl. The cells were incubated at 37° C. for 3 h, at which time the drug solutions were replaced with 200 μL of fresh growth medium.
as §4

Water solubility = format: physicochemical; settings: as di-cation
cancer cells [3] = assay: Cancer cell growth inhibition, statements over several or unnamed cell lines; format: cell-based; settings: read-out: Cancer cell growth inhibition IC50 in the presence of plasmin
Method: as §7, §5

human plasmin = human plasmin (Homo sapiens, UniProt P00747); assay: Plasmin activation of prodrug and release of Doxaz (HPLC); format: biochemical; settings: 37° C.
Method: Both Formulas IV and V were incubated with 15 μg/ml human plasmin and monitored by HPLC at 37° C. Just 4 min after the addition of plasmin, 20 percent of compound 10 was converted to Doxaz and roughly 50% of that Doxaz had hydrolyzed to Doxorubicin. Within 23 minutes, nearly all of the prodrug was converted to Doxaz and subsequently hydrolyzed to Doxorubicin.

[4] = 24 h drug treatment, crystal violet
[5] = 3 h drug treatment, crystal violet
[6] = Homo sapiens, NCI/ADR-RES, read-out: IC50 MCF-7/Adr

Chain of human plasmin (P00747 581-810 limits assumed): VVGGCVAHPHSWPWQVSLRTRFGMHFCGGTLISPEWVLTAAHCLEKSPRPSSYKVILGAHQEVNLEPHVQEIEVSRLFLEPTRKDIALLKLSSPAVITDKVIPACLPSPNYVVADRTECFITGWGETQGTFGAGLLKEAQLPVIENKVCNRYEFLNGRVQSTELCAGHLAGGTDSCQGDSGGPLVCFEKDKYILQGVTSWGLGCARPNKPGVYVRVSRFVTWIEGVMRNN
Chain of human plasmin (P00747 97-580 partner limits assumed): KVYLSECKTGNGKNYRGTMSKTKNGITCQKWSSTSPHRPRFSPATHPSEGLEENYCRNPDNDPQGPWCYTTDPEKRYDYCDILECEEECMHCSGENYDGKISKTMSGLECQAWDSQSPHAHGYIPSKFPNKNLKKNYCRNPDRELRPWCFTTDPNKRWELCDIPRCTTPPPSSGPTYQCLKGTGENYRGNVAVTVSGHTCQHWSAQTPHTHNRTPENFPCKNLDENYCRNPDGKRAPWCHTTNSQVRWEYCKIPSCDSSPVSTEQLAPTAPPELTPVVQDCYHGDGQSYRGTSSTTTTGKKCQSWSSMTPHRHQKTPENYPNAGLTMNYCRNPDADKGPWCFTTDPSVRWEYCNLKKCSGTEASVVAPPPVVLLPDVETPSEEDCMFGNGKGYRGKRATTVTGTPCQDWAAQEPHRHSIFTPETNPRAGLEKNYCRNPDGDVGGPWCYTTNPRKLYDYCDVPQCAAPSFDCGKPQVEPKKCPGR

Compound	Growth inhibition IC50, SK-HEP-1, 24 h (SK-HEP-1)	Growth inhibition IC50, MCF-7/Adr, 24 h (MCF-7/Adr; crystal violet)	Growth inhibition IC50, H9c2(2-1), 24 h [1]	Growth inhibition IC50, MCF-7, 24 h (MCF-7; [4])	Cell growth inhibition IC50, DU-145 (DU-145)	Growth inhibition IC50, Hep G2, 24 h (Hep G2)	Cell growth inhibition IC50, SHP-77 (SHP-77)	Growth inhibition IC50, Vero, 24 h (Vero cells)	IC50 (MCF-7/Adr; [6]) [nM]	further results
CCCCOC(=O)Nc1ccc(COC(=O)N2COC3C(C)OC(OC4CC(O)(C(=O)CO)Cc5c(O)c6c(c(O)c54)C(=O)c4c(OC)cccc4C6=O)CC32)cc1 (stereo not shown) [Butyl PABC-Doxaz]	−5.8 ± 0.04 log of the molar concentration	−5.9 ± 0.06 log of the molar concentration	−7.2 ± 0.2 log of the molar concentration	−4.1 ± 0.3 log of the molar concentration	−6.3 ± 0.3 log of molar concentrations	−7.7 ± 0.03 log of the molar concentration	−7.1 ± 0.1 log of molar concentrations	−6.1 ± 0.08 log of the molar concentration		
COc1cccc2c1C(=O)c1c(O)c3c(c(O)c1C2=O)C[C@@](O)(C(=O)CO)C[C@@H]3O[C@H]1C[C@H](NCNC(=O)c2ccccc2O)[C@H](O)[C@H](C)O1 [DoxSF, doxsaliform, reference compound]										IC50 (MCF-7/Adr; 3 h drug treatment, growth at 5 days, read-out: IC50 MCF-7/Adr): 800 to 2000 nM; IC50 (MCF-7; 3 h drug treatment, growth at 5 days, read-out: IC50 MCF-7): 70 to 80 nM; Less active than DoxF in cancer cell growth inhibition (cancer cells [2]): 50 fold; IC50 (MDA-MB-435): 50 ± 9 nM
CCCCOC(=O)N1COC2C(C)OC(OC3CC(O)(C(=O)CO)Cc4c(O)c5c(c(O)c43)C(=O)c3c(OC)cccc3C5=O)CC21 (stereo not shown) [Doxaz Butyl Carbamate]	−6.4 ± 0.2 log of the molar concentration	−6.2 ± 0.3 log of the molar concentration	−5.8 ± 0.2 log of the molar concentration	−6.1 ± 0.04 log of the molar concentration	−6.4 ± 0.02 log of molar concentrations	−6.7 ± 0.3 log of the molar concentration	−6.6 ± 0.3 log of molar concentrations	−6.3 ± 0.1 log of the molar concentration		
CCOC(=O)N1COC2C(C)OC(OC3CC(O)(C(=O)CO)Cc4c(O)c5c(c(O)c43)C(=O)c3c(OC)cccc3C5=O)CC21 (stereo not shown) [Doxaz Ethyl Carbamate]	>−6 log of the molar concentration	>−5 log of the molar concentration				>−6 log of the molar concentration				Growth inhibition IC50, SK-HEP-1, 3 h (SK-HEP-1; 3 h drug treatment): >−6 log of the molar concentration; Growth inhibition IC50, MCF-7/Adr, 3 h (MCF-7/Adr; [5]): −5.3 ± 0.04 log of the molar concentration; Growth inhibition IC50, H9c2(2-1), 3 h ([1]; 3 h drug treatment, MTT): −5.8 ± 0.2 log of the molar concentration; Growth inhibition IC50, MCF-7, 3 h (MCF-7; [5]): >−6 log of the molar concentration; IC50 (MCF-7; 24 h drug treatment, crystal violet, read-out: Growth inhibition IC50, MCF-7, 24 h): > 1000 nM; Growth inhibition IC50, Hep G2, 3 h (Hep G2; 3 h drug treatment): >−6 log of the molar concentration
COc1cccc2c1C(=O)c1c(O)c3c(c(O)c1C2=O)C[C@@](O)(C(=O)CO)C[C@@H]3O[C@H]1C[C@H](N)[C@@H](O)[C@H](C)O1 [Epi, Epidoxorubicin, reference compound]									> 10000	IC50 (MCF-7; Homo sapiens, MCF7, read-out: IC50 MCF-7, 3 h drug treatment, growth at 5 days): 200 nM; IC50 (DU-145; Homo sapiens, DU-145, read-out: IC50 DU-145): 380 ± 52 nM
COc1cccc2c1C(=O)c1c(O)c3c(c(O)c1C2=O)C[C@@](O)(C(=O)CO)C[C@@H]3O[C@H]1C[C@H]2[C@@H](OCN2C(=O)OCc2ccc(NC(=O)OCc3ccc(NC(=O)[C@H](CCCCN)NC(=O)[C@H](Cc4ccccc4)NC(=O)[C@@H](C)N)cc3)cc2)[C@H](C)O1 [Formula V]									100	Water solubility (Water solubility): excellent water solubility; IC50 (MCF-7/Adr; Homo sapiens, NCI/ADR-RES, 3 h, read-out: IC50 MCF-7/Adr + plasmin): 10 nM; IC50 (MCF-7; Homo sapiens, MCF7, 3 h, read-out: IC50 MCF-7 + plasmin): 9 nM; IC50 (MCF-7; Homo sapiens, MCF7, read-out: IC50 MCF-7): 60 nM; IC50 (cancer cells [3]): 5 nM; Time until nearly all of the prodrug was converted to Doxaz (human plasmin; 15 μg/ml human plasmin): ≤ 23 min; Prodrug converted to Doxaz (human plasmin; 4 min after addition of 15 μg/ml human plasmin): 20%
